Tests used:
[1] = test system: CTGF & Cyr61 expression; assay: Real time RT-PCR of YAP-target genes CTGF and Cyr61 in GBM cells; type: cell-based, human; settings: LN229 and GBM39 cells, 18 h
Protocol: Levels of total YAP were determined via ELISA. […] Immunoprecipitates were immunoblotted for the indicated proteins. […] Cells were treated with the indicated concentrations of inhibitor for 18 h and mRNA extracted for real time RT-PCR analyses. Measurements were performed in quadruplicate and means and+S.D. are shown. […] Cells were treated with (+) or without (−) NSC682769 (100 nM, 18 h) and harvested and separated into cytoplasmic and nuclear cellular fractions. Cytoplasmic versus nuclear material was subsequently immunoblotted for the indicated proteins. […] Values in top right corner of panels correspond to the percentage of nuclear localized YAP. […]
Protein and mRNA analyses, immunoprecipitation, in vitro bead-coupled inhibitor binding assays and HPLC analyses. […] Antigen-antibody complexes were detected using appropriate horseradish peroxidase-conjugated secondary antibodies (GE Healthcare) and enhanced chemiluminescence (Amersham ECL Prime). […] For quantitative RT-PCR, extraction of RNA was performed using Trizol® (Life Technologies). Total RNA was then quantified and integrity assessed using an Agilent 2100 Bioanalyzer (Agilent Technology). […] SYBR® Green quantitative PCR (Millipore Sigma) was performed in triplicate in 96-well optical plates on an ABI Prism 7000 Sequence Detection System (Life Technologies) according to the manufacturer's instructions. […]

[2] = test system: YAP-TEAD transcriptional activity; assay: HOP-flash TEAD binding site luciferase reporter; type: cell-based, human; settings: LN229 or GBM39 cells, 18 h
Protocol: Levels of total YAP were determined via ELISA. […] Immunoprecipitates were immunoblotted for the indicated proteins. […] Cells were treated with the indicated concentrations of inhibitor for 18 h and mRNA extracted for real time RT-PCR analyses. Measurements were performed in quadruplicate and means and+S.D. are shown. […] Cells were treated with (+) or without (−) NSC682769 (100 nM, 18 h) and harvested and separated into cytoplasmic and nuclear cellular fractions. Cytoplasmic versus nuclear material was subsequently immunoblotted for the indicated proteins. […] Values in top right corner of panels correspond to the percentage of nuclear localized YAP. Cells were grown on coverslips and treated with NSC682769. Cells were permeabilized and stained using primary antibody to YAP1 and FITC-conjugated secondary. Nuclei were stained with DAPI. Scale bar, 20 μm.
Surface plasmon resonance (SPR), ELISA, YAP-TEAD reporter activity, cellular fractionation, and immunofluorescence analyses. SPR experiments were carried out on a Nicoya OpenSPR™ instrument using immobilized YAP on a carboxyl-coated sensor. […] YAP-TEAD reporter activity was determined as previously described (Kim N G, Gumbiner B M (2015) J Cell Biol 210: 503-515). […] Luciferase activity was measured via a luciferase assay system (Promega). […] Cell lysis was monitored by trypan blue staining. […]

SMILES: COc1ccc(-c2cc(-c3ccccc3)nc3c2CC(=O)Nc2ccccc2-3)cc1OC [NSC682769]
- CTGF and Cyr61 transcripts [1]: downregulated
- YAP-TEAD transcriptional activity (luciferase) [2]: markedly reduced

Reference: patent US20240108634A1, “COMPOSITIONS AND METHODS FOR INHIBITING YAP” (The United States Government as represented by the …, priority 2021, published 2024)
